Patent US9675576B2, “Polyenolic zinc-binding agents (pezbins) actively promote inactivation of cancer stem cells and potentiate cytotoxic anti-tumor drug substances” (The Research Foundation for The State University of New York, priority 2012, dated 2017)
Entries after “also recorded” stand apart in the source; their conditions may differ.

Tests used:
[1] = test system: CD133+ PPT2 cells; assay type: cell-based, human
Protocol: (§1) The CSC-specific cytotoxic effects were studied in two different settings both of which are known to maintain/promote sternness phenotype: adherent to type I collagen cultures and 3D cultures of floating spheroids (Baretton, G. B. 1994; Miyoshi, Y. 2000; Koivisto, P. 1995). The CD133^high/CD44^high cells (1×10^3 cells/well) isolated either from PPT2 or PC3MM2 cell lines were seeded onto the type I collagen-coated 96-well plates, cultured in the MSCGM for 2 days, and the treatment was initiated upon 90% confluency. Paclitaxel, SBT-1214 and CMC2.24 were dissolved in sterile DMSO and then serially diluted in MSCGM. For testing the SBT-1214/CMC2.24 combination efficacy, the regular MSCGM was replaced with treatment medium containing SBT-1214 or Ptx at selected concentration range (from 10 nM to 10 μM) with 30 μM CMC2.24. Treatment medium was removed 24, 48 or 72 hr later, followed by return to the MSCGM. Cell death was analyzed on adherent type I collagen cell cultures with the MTT assay [MTT=3-(4,5-dimethylthiazol-2-yl)-2,5-diphenyltetrazolium bromide] as recommended by manufacturer (Invitrogen). Spheroids were cultured and treated on ULA plates.
(§2) The dose-response cytotoxicity of SBT-1214, CMC2.24/and their combination was evaluated by standard MTT assay (all of the in vitro experiments were repeated at least three times and each measurement for the MMT assay was performed in 4 repeats). The dose-response points were plotted as a percentage of the untreated control, the absorbance of which was considered as 100%. Data were expressed as means±SD for each drug concentration. The in vivo responses to drug treatment were evaluated as changes in tumor volume of drug-treated versus untreated control xenografts induced by particular type of cells. Data were expressed as means±SD for control and drug treated tumors. The statistical significance of differences was determined using Student's t-test. The parameters used were the two-tailed distribution and the paired test. P<0.05 was considered statistically significant.

[2] = test system: CD133+ PC3MM2 cells; assay: MTT cytotoxicity assay, CD133+ PC3MM2 cells on type I collagen; assay type: cell-based, human; conditions: 72 hours, 10 nM-10 μM, stated as up to
Protocol: as §1, with “For testing the SBT-1214/CMC2.24 combination efficacy, the regular MSCGM was replaced with treatment medium containing SBT-1214 or Ptx at selected concentration range (from 10 nM to 10 μM) with 30 μM CMC2.24. Treatment medium was removed 24, 48 or 72 hr later, followed by return to the MSCGM.” left out, “Spheroids were cultured and treated on ULA plates.” left out
as §2, with “The in vivo responses to drug treatment were evaluated as changes in tumor volume of drug-treated versus untreated control xenografts induced by particular type of cells.” left out, “The parameters used were the two-tailed distribution and the paired test. P<0.05 was considered statistically significant.” left out

[3] = test system: prostate CD133+ cells (PPT2 and PC3MM2); assay: MTT cytotoxicity assay, results stated for prostate CD133+ cells without split by line; assay type: cell-based, human
Protocol: as §1, §2

[4] = test system: PPT2 and PC3MM2 cell lines; assay: FACS analysis of CD133 expression after drug treatment; assay type: cell-based, human; conditions: 10 nM to 10 μM, 24 hours, concentration-dependent
Description: To ensure more reliable isolation of CSCs, cells were labeled with one or several markers conjugated with different fluorescent dyes, including anti-human CD133/2-APC (clone 293C3; Miltenyi Biotec, CA, USA); CD166-PE (clone 105902; R&D Systems, MN, USA); CD44-FITC (clone F10-44-2), CD44-PE (clone F10-44-2; Invitrogen/Biosources, USA); CD44v6-FITC (clone 2F10; R&D Systems, USA), EpCAM-FITC (Biosource, CA, USA), Pan-Keratin (C11)-Alexa Fluor® 488 (Cell Signaling) and all the isotype controls (Chemicon). Antibodies were diluted in buffer containing 5% BSA, 1 mM EDTA and 15-20% blocking reagent (Miltenyi Biotec) to inhibit unspecific binding to non-target cells. After 15 min incubation at 4° C., stained cells were sorted and analyzed with multiparametric flow cytometer BD FACSAria (Becton Dickinson, CA). Alternatively, dissociated cells were centrifuged at 950 g for 5 min at 4° C., rinsed with sterile MACS buffer (Miltenyi Biotec, CA) and labeled with CD133 Abs directly or indirectly conjugated with ferromagnetic beads (Miltenyi Biotec, CA) as recommended by manufacturer.
as §1, with “For testing the SBT-1214/CMC2.24 combination efficacy, the regular MSCGM was replaced with treatment medium containing SBT-1214 or Ptx at selected concentration range (from 10 nM to 10 μM) with 30 μM CMC2.24. Treatment medium was removed 24, 48 or 72 hr later, followed by return to the MSCGM.” left out, “Spheroids were cultured and treated on ULA plates.” left out

[5] = test system: PPT2 and PC3MM2 floating spheroids; assay: Sphere formation assay after drug treatment; assay type: cell-based, human; conditions: 1 μM, 24 hours
Protocol: In order to obtain prostate cancer spheroids, MACS-CD133 and MACS-CD44 (Miltenyi Biotec, CA) or FACS sorted CD133^high/CD44^high cells were seeded at low numbers on ULA plates (1,000 cells per 6-well plate or 5-10,000 cells per 75 mm flasks) in MSCGM or SPCM. For evaluation of the clonogenic/sphere-forming capacity, cells were counted with Cellometer Auto T4 (Nexcelom Bioscience LLC, MA), resuspended in 1:4 type I collagen/SPCM or 1:4 Matrigel/MSGM and known cell numbers were plated on ULA plates. One week after initiation plates were inspected for floating sphere growth and compact well-shaped spheroids were counted. Spheroids were serially passaged by gentle dissociation and mixing with a new Matrigel/MSGM or type I collagen/SPCM, or reseeded on 48-well plates for final count of 5-10 spheres per well for further propagation and analysis.

[6] = test system: Oct-4, Sox-2, Nanog, Lin-28 and c-Myc; assay: Stem cell-specific PCR array on 3D spheroids induced by CD133high/CD44high cells; assay type: cell-based; conditions: single treatment with 0.01 μg/ml
Protocol: Stem cell-specific gene expression profiles were studied with the PCR Array assay (SABiosciences, CA) in accordance with the manufacturer's recommendations. Briefly, total RNA was isolated from different cell populations (cancer stem cells expressing high levels of the CD133 and CD44, or whole floating spheroids that are enriched with CSCs) using PARIS kit (Ambion). Up to 1 μg of total RNA was treated with DNase and cDNA was prepared using RT^2 First Strand kit. For each analysis, pairs of the test and control cDNA samples were mixed with RT^2 qPCR Master mix and distributed across the PCR array 96-well plates, each of which contained 84 stem cell-related probes and control housekeeping genes. After cycling with real-time PCR (Opticon MJ Research or ABI 7300, Applied Biosystems), obtained amplification data (fold-changes in Ct values of all the genes) was analyzed with SABiosciences software.
Since CSC-enriched CD 133^+ and CD44^+ cell populations are more resistant to conventional therapies than other more differentiated cells, the cytotoxic effects of SBT-1214 were tested against such cell populations in colon (Botchkina et al., 2010) and prostate (FIG. 5) cancers. […]

[7] = test system: c-Myc, Sox-2 and Oct4; assay: Western blot of key transcription factors; assay type: cell-based, human; conditions: nuclear extracts of CD133+ and bulk PPT2 cells
Protocol: (§3) Cells were lysed using Active Motif Nuclear Co-ip kit according to manufacturer's protocol. 20 μg of enriched nuclear and cytoplasmic extracts was subjected to electrophoresis in 10% polyacrylamide gel. The proteins were then transferred to a nitrocellulose membrane and developed with appropriate antibodies.

[8] = test system: p53 and p21; assay: Western blot of pro-apoptotic proteins; assay type: cell-based, human; conditions: CD133+ and bulk PPT2 cells, previously not expressed
Protocol: as §3

[9] = test system: PPT2- and PC3MM2-induced tumors; assay: Tumor xenografts induced by CD133+ cells, tumor size; assay type: in vivo, NOD/SCID mice
Protocol: All experiments involving the use of animals were carried out in strict accordance with the recommendations in the Guide for the Care and Use of Laboratory Animals of the National Institutes of Health, via a research protocol that was approved by Stony Brook University Institutional Animal Care and Use Committee (IACUC). NOD/SCID mice (Charles River Laboratories International, Inc., MA) were maintained under defined conditions at SBU animal facility. After sufficient propagation, CD133^+ cells were resuspended in 1:1 MSCGM/Matrigel and injected to the flanks of 6 weeks old NOD/SCID mice (3,000 cells per mice; subcutaneously). Tumor development was monitored starting from the second week. The primary tumor sizes were measured with a caliper on a weekly basis and approximate tumor weights determined using the formula 0.5ab^2, where b is the smaller of the two perpendicular diameters. All mice were terminated after fourth week of treatment, if the tumor measured ˜2 cm, or at the first sign of suffering.
Animals were handled according to protocols that have been approved by the Institutional Animal Care and Use committee of the Stony Brook University. […] Systemic toxicity in NOD/SCID mice was closely monitored and evaluated by standard criteria (motor activity, morbidity, appetite, posture and appearance). […] Cells were counted and plated on 48-well plates at a final count of 300 cells per well. […]

[10] = test system: PPT2-induced tumors; assay: Residual tumors after treatment, viable cells and ex vivo colonies, PPT2; assay type: in vivo, NOD/SCID mice; conditions: 40, 20, 20, 20 mg/kg weekly, one week after last treatment
Protocol: (§4) Animals were handled according to protocols that have been approved by the Institutional Animal Care and Use committee of the Stony Brook University. The staff of veterinarians provided veterinary care. The SBT-1214 was administered intravenously (40, 20, 20, 20 mg/kg; weekly) to 6-weeks old NOD/SCID mice. Treatment was started 2-3 weeks after transplantation of the tumor cells, when tumor xenografts reached ˜100 mm^3. Systemic toxicity in NOD/SCID mice was closely monitored and evaluated by standard criteria (motor activity, morbidity, appetite, posture and appearance). One week after the last treatment, all residual tumors were harvested and analyzed histopathologically and for ex vivo clonogenic capacity. One part of each mouse tumor xenograft was snap-frozen in embedding matrix (Lipshaw) and kept at −80° C. before immunohistochemical analysis at standard conditions. […] Ability to induce the round colonies (holoclones) was also determined before and after drug treatment. Cells were counted and plated on 48-well plates at a final count of 300 cells per well. One week after initiation, the plates were inspected for colony growth and the number of colonies within each well was quantified by phase contrast microscopy. After drug treatment, one portion of cells which survived particular treatment regimen was placed at 3D and adherent culture conditions and analyzed. […]

[11] = test system: PC3MM2-induced tumors; assay: Residual tumors after treatment, viable cells and ex vivo colonies, PC3MM2; assay type: in vivo, NOD/SCID mice; conditions: 40, 20, 20, 20 mg/kg weekly, one week after last treatment
Protocol: as §4

[12] = Systemic toxicity in tumor-bearing mice; assay type: in vivo, NOD/SCID mice
Protocol: as §4

[13] = test system: drug-resistant colon tumor xenografts; conditions: all surviving mice; cited from earlier work

SMILES | cytotoxicity at lower concentrations compared to 10 μM ([1]; 100 nM-1 μM versus 10 μM, 48-72 hours) | cell death ([1]; 72 hours, 10 nM-10 μM, stated as up to) | cell death [2] | CD133+ cells killed ([3]; 48-72 hours, 10 nM to 10 μM, stated as up to) | ratios of cells with highest expression of CD133 [4] | ability to induce secondary 3D spheroids or collagen-adherent colonies [5] | expression of key regulators of pluripotency [6] | c-Myc and Sox2 expression [7] | expression of p21 and p53 [8] | tumor size ([9]; 40, 20, 20, 20 mg/kg weekly i.v.) | tumor size ([9]; 40, 40, 40 mg/kg weekly i.v., by the third treatment) | residual tumors without viable cells and without colonies in culture [10] | residual tumors without viable cells and without colonies in culture [11] | systemic toxicity ([12]; 40, 20, 20, 20 mg/kg weekly) | systemic toxicity ([12]; 40, 40, 40 mg/kg weekly) | tumor regression [13] | concentration dependence of effect on prostate CD133+ cells ([3]; single agent)
CC(=O)O[C@@]12CO[C@@H]1C[C@H](O)[C@@]1(C)C(=O)[C@H](OC(=O)C3CC3)C3=C(C)[C@@H](OC(=O)[C@H](O)[C@H](C=C(C)C)NC(=O)OC(C)(C)C)C[C@@](O)([C@@H](OC(=O)c4ccccc4)[C@H]21)C3(C)C [SBT-1214] | higher cytotoxicity | up to 65% | up to 60% | up to 60% | increased the ratios | lost their ability to induce both secondary 3D spheroids | significantly inhibited | moderate down-regulation | induced expression | more significant tumor regression; also recorded: dramatic reduction in tumor size | dramatically shrunk | Four of six | three of six | much lower systemic toxicity | all mice expressed common signs of systemic toxicity | complete regression | –
COc1cc(/C=C/C(=O)CC(=O)/C=C/c2ccc(O)c(OC)c2)ccc1O [curcumin, diferuloylmethane] | – | – | – | – | – | – | – | – | – | – | – | – | – | – | – | – | biphasic effects
